# From patent publication EP0233841A1, “Quinone derivatives and process for their preparation” (Arai, Tadashi, Prof., priority 1986, dated 1987)
# System: Leukämie-Zellinie L1210
# Assay: in vitro cytotoxicity test, growth inhibition of cultured leukaemia cell line L1210
# Type: cell-based, Mäuse
# Details: Mus musculus, 72 h; L1210 cells, 3-day incubation, cell count, by interpolation; read-out: ID₅₀ (50 % Hemmwirkdosis)
# Experimental: Die Saframycin-Derivate der vorliegenden Erfindungen zeigen insbesondere in vitro Zytotoxizität gegenüber Zellkulturen von Mäuse-Leukämie-Zellen L 1210 (NCI). Für die geprüften Verbindungen werden ID₅₀-Werte im Bereich von 0,1 bis 0,001 µg/ml gefunden.
# Die Wirksamkeit gegen Tumoren in vitro wird mit einer kultivierten Leukämie-Zellinie L1210 (K. Kishi et al., J. Antibiot. 37, 847 (1984)) bestimmt. Die Zellen werden in Eagle's minimum essential medium (Nissui Seiyaku Co. Ltd., Tokyo) enthaltend 10 % fötales Kälberserum (Gibco Laboratories) in Suspension-Kultur gehalten. Die Zellen werden bei einer Konzentration von 3x10⁴ Zellen/ml in 24-Loch-Mikrotiterplatten (Costar) suspendiert und bei 37° in einer feuchten Atmosphäre enthaltend 5 % CO₂ in Luft 24 Stunden lang kultiviert, um exponentielles Wachstum auszulösen. Diese Kulturen werden mit einer Reihe von jeweils um den Faktor 10 verdünnten Proben Saframycin-Derivaten dieser Erfindung versetzt. Die Konzentration der Zellen wird nach 3-tägiger Inkubation durch elektrische Zählung mit einem Sysmex CC-130 Mikro-Zellzählgerät (Toa Electronics Ltd., Tokyo) bestimmt. Die Wachstumshemmung (Inhibierung I) in Prozent wird für jede Dosismenge nach der Formel I=(C3-T3)/(C3-C0)x100, worin T3 die Zellkonzentration in den Vertiefungen der Mikrotiterplatte bei einer gegebenen Verdünnung des Wirkstoffs nach 3-tägiger Inkubation, C3 die Zellkonzentration in der entsprechenden Kontroll-Inkubation und C0 die Zellkonzentration in den Vertiefungen vor der 3-tägigen Inkubation bedeuten, berechnet. ID₅₀ (50 % Hemmwirkdosis) wird durch Interpolierung bestimmt.
row,Structure (SMILES),IC50 [µg/mL]
1,"CCCCN(CCCC)[C@@H](C)C(=O)NCC1C2=C(CC3C4C5=C(CC(C(C#N)N13)N4C)C(=O)C(C)=C(OC)C5=O)C(=O)C(C)=C(OC)C2=O (stereo partly drawn) [N,N-Dibutyl-Saframycin Y₃, N,N-Di-n-butyl-Saframycin Y₃]",0.08
2,"CCN(CC)[C@@H](C)C(=O)NCC1C2=C(CC3C4C5=C(CC(C(C#N)N13)N4C)C(=O)C(C)=C(OC)C5=O)C(=O)C(C)=C(OC)C2=O (stereo partly drawn) [N,N-Diäthyl-Saframycin Y₃]",0.0035
3,COC1=C(C)C(=O)C2=C(C1=O)C1C3CC4=C(C(=O)C(OC)=C(C)C4=O)C(CNC(=O)[C@H](C)NC(=S)Nc4ccccc4)N3C(C#N)C(C2)N1C (stereo partly drawn) [N-Phenylthiocarbamoyl-Saframycin Y₃],0.1
4,"COC1=C(C)C(=O)C2=C(C1=O)C1C3CC4=C(C(=O)C(OC)=C(C)C4=O)C(CNC(=O)[C@H](C)NC(=O)c4ccc(Br)cc4)N3C(C#N)C(C2)N1C (stereo partly drawn) [N-p-Brombenzyol-Saframycin Y₃, N-p-Brombenzoyl-Saframycin Y₃]",0.01
5,COC1=C(C)C(=O)C2=C(C1=O)C1C3CC4=C(C(=O)C(OC)=C(C)C4=O)C(CNC(=O)[C@H](C)NC(C)C)N3C(C#N)C(C2)N1C (stereo partly drawn) [N-Isopropyl-Saframycin Y₃],0.0018
6,COC1=C(C)C(=O)C2=C(C1=O)C1C3CC4=C(C(=O)C(OC)=C(C)C4=O)C(CNC(=O)[C@H](C)NC(=O)C(C)(C)C)N3C(C#N)C(C2)N1C (stereo partly drawn) [N-Pivaloyl-Saframycin Y₃],0.01
7,COC1=C(C)C(=O)C2=C(C1=O)C1C3CC4=C(C(=O)C(OC)=C(C)C4=O)C(CNC(=O)[C@H](C)NCc4ccc([N+](=O)[O-])cc4)N3C(C#N)C(C2)N1C (stereo partly drawn) [N-p-Nitrobenzyl-Saframycin Y₃],0.0015
8,COC1=C(C)C(=O)C2=C(C1=O)C1C3CC4=C(C(=O)C(OC)=C(C)C4=O)C(CNC(=O)[C@H](C)NC(=O)Nc4ccccc4)N3C(C#N)C(C2)N1C (stereo partly drawn) [N-Phenylcarbamoyl-Saframycin Y₃],0.04
9,COC1=C(C)C(=O)C2=C(C1=O)C1C3CC4=C(C(=O)C(OC)=C(C)C4=O)C(CNC(=O)[C@H](C)NC(=O)Nc4cccc5ccccc45)N3C(C#N)C(C2)N1C (stereo partly drawn) [N-α-Naphthylcarbamoyl-Saframycin Y₃],0.08
10,CCCCCCCC(=O)N[C@@H](C)C(=O)NCC1C2=C(CC3C4C5=C(CC(C(C#N)N13)N4C)C(=O)C(C)=C(OC)C5=O)C(=O)C(C)=C(OC)C2=O (stereo partly drawn) [N-n-Octanoyl-Saframycin Y₃],0.11
11,CCCCCCCCCCCCCCCC(=O)N[C@@H](C)C(=O)NCC1C2=C(CC3C4C5=C(CC(C(C#N)N13)N4C)C(=O)C(C)=C(OC)C5=O)C(=O)C(C)=C(OC)C2=O (stereo partly drawn) [N-n-Hexadecanoyl-Saframycin Y₃],0.03
12,CCCCCCCCCC(=O)N[C@@H](C)C(=O)NCC1C2=C(CC3C4C5=C(CC(C(C#N)N13)N4C)C(=O)C(C)=C(OC)C5=O)C(=O)C(C)=C(OC)C2=O (stereo partly drawn) [N-n-Decanoyl-Saframycin Y₃],0.11
13,CCC(=O)N[C@@H](C)C(=O)NCC1C2=C(CC3C4C5=C(CC(C(C#N)N13)N4C)C(=O)C(C)=C(OC)C5=O)C(=O)C(C)=C(OC)C2=O (stereo partly drawn) [N-Propionyl-Saframycin Y₃],0.02
14,CCCCCC(=O)N[C@@H](C)C(=O)NCC1C2=C(CC3C4C5=C(CC(C(C#N)N13)N4C)C(=O)C(C)=C(OC)C5=O)C(=O)C(C)=C(OC)C2=O (stereo partly drawn) [N-n-Hexanoyl-Saframycin Y₃],0.0075
15,"CCCN(CCC)[C@@H](C)C(=O)NCC1C2=C(CC3C4C5=C(CC(C(C#N)N13)N4C)C(=O)C(C)=C(OC)C5=O)C(=O)C(C)=C(OC)C2=O (stereo partly drawn) [N,N-Dipropyl-Saframycin Y₃, N,N-Di-n-propyl-Saframycin Y₃]",0.0015
